Reference: the NIST ThermoML archive (doi:10.1016/j.jct.2018.12.019)

What was measured:
[1] = excess molar enthalpy (molar enthalpy of mixing); xn = mol fraction of the nth substance listed; conditions: 298.15 K, 98 kPa, Liquid, Calvet calorimetry
[2] = xn = mol fraction of the nth substance listed; conditions: 98 kPa, Liquid; for speed of sound: Frequency=3 MHz, Single path-length method; for mass density: Vibrating tube method

Cn1ccnc1 [1-methylimidazole] + CCO
[1]
Conditions | excess molar enthalpy [kcal/mol]
x1 = 0.0523 | -0.0449
x1 = 0.1012 | -0.0853
x1 = 0.2013 | -0.15
x1 = 0.3057 | -0.194
x1 = 0.4037 | -0.23
x1 = 0.5087 | -0.239
x1 = 0.5987 | -0.199
x1 = 0.7146 | -0.152
x1 = 0.8003 | -0.105
x1 = 0.8861 | -0.0619
x1 = 0.9463 | -0.0344
x1 = 1 | 0

[2]
Conditions | mass density, 288.15 K [kg/m3] | mass density, 298.15 K [kg/m3] | mass density, 308.15 K [kg/m3] | mass density, 318.15 K [kg/m3] | mass density, 328.15 K [kg/m3] | speed of sound, 288.15 K [m/s] | speed of sound, 298.15 K [m/s] | speed of sound, 308.15 K [m/s] | speed of sound, 318.15 K [m/s] | speed of sound, 328.15 K [m/s]
x1 = 0.0511 | 812.59 | 803.97 | 795.24 | 786.37 | 777.3 | 1210.6 | 1176.2 | 1141.9 | 1108 | 1074.3
x1 = 0.1012 | 829.84 | 821.16 | 812.37 | 803.49 | 794.35 | 1240.8 | 1206.2 | 1171.7 | 1137.5 | 1103.7
x1 = 0.2006 | 861.64 | 852.87 | 844 | 835.02 | 825.9 | 1296.9 | 1261.9 | 1227 | 1192.5 | 1158.3
x1 = 0.3012 | 891.28 | 882.45 | 873.53 | 864.53 | 855.41 | 1350 | 1314.7 | 1279.5 | 1244.6 | 1210.1
x1 = 0.3955 | 916.81 | 907.94 | 899 | 889.99 | 880.88 | 1396.8 | 1361.2 | 1325.7 | 1290.5 | 1255.7
x1 = 0.5 | 942.71 | 933.82 | 924.87 | 915.86 | 906.77 | 1445.7 | 1409.8 | 1373.8 | 1338.3 | 1303
x1 = 0.5994 | 965.25 | 956.36 | 947.41 | 938.4 | 929.34 | 1489.5 | 1453 | 1416.7 | 1380.7 | 1345.1
x1 = 0.7066 | 987.5 | 978.61 | 969.67 | 960.68 | 951.65 | 1533 | 1496.1 | 1459.3 | 1423 | 1386.9
x1 = 0.8063 | 1006.58 | 997.7 | 988.78 | 979.82 | 970.81 | 1570.7 | 1533.5 | 1496.3 | 1459.6 | 1423.3
x1 = 0.902 | 1023.35 | 1014.49 | 1005.59 | 996.65 | 987.68 | 1603.2 | 1565.8 | 1528.4 | 1491.4 | 1454.8
x1 = 0.9505 | 1031.47 | 1022.63 | 1013.75 | 1004.83 | 995.88 | 1619 | 1581.5 | 1544 | 1507 | 1470.2
x1 = 1 | 1039.36 | 1030.52 | 1021.66 | 1012.76 | 1003.83 | 1634.1 | 1596.5 | 1559 | 1521.8 | 1485

Cn1ccnc1 [1-methylimidazole] + CC(C)O
[1]
Conditions | excess molar enthalpy [kcal/mol]
x1 = 0.0518 | -0.0112
x1 = 0.1082 | -0.0304
x1 = 0.1974 | -0.0511
x1 = 0.2924 | -0.0734
x1 = 0.3342 | -0.0793
x1 = 0.3969 | -0.0848
x1 = 0.4954 | -0.0899
x1 = 0.5926 | -0.0846
x1 = 0.7041 | -0.0719
x1 = 0.798 | -0.0519
x1 = 0.8831 | -0.0294
x1 = 0.9538 | -0.0143
x1 = 1 | 0

[2]
Conditions | mass density, 288.15 K [kg/m3] | mass density, 298.15 K [kg/m3] | mass density, 308.15 K [kg/m3] | mass density, 318.15 K [kg/m3] | mass density, 328.15 K [kg/m3] | speed of sound, 288.15 K [m/s] | speed of sound, 298.15 K [m/s] | speed of sound, 308.15 K [m/s] | speed of sound, 318.15 K [m/s] | speed of sound, 328.15 K [m/s]
x1 = 0.0508 | 803.32 | 794.92 | 786.26 | 777.31 | 767.99 | 1199.2 | 1164 | 1128.7 | 1093.2 | 1057.4
x1 = 0.1043 | 817.79 | 809.32 | 800.63 | 791.7 | 782.45 | 1224.9 | 1189.6 | 1154.6 | 1118.7 | 1083
x1 = 0.2003 | 843.18 | 834.63 | 825.91 | 817 | 807.86 | 1268.9 | 1233.4 | 1197.9 | 1162.5 | 1127.2
x1 = 0.3007 | 869.37 | 860.76 | 852.02 | 843.13 | 834.07 | 1313.8 | 1278.4 | 1242.9 | 1207.7 | 1172.6
x1 = 0.405 | 896.25 | 887.59 | 878.83 | 869.96 | 860.95 | 1360.7 | 1325.3 | 1289.7 | 1254.5 | 1219.5
x1 = 0.5046 | 921.64 | 912.93 | 904.15 | 895.28 | 886.27 | 1406.8 | 1371.1 | 1335.5 | 1300.1 | 1265
x1 = 0.6006 | 945.55 | 936.79 | 927.97 | 919.09 | 910.11 | 1451.7 | 1415.7 | 1379.6 | 1344 | 1308.6
x1 = 0.7034 | 970.8 | 962 | 953.15 | 944.24 | 935.27 | 1500.7 | 1464.1 | 1427.7 | 1391.6 | 1355.8
x1 = 0.8029 | 994.49 | 985.66 | 976.78 | 967.86 | 958.89 | 1547.2 | 1510.2 | 1473.3 | 1436.7 | 1400.5
x1 = 0.9031 | 1017.75 | 1008.9 | 1000.03 | 991.11 | 982.15 | 1592.8 | 1555.5 | 1518.1 | 1481.2 | 1444.6
x1 = 0.9536 | 1029.16 | 1020.32 | 1011.45 | 1002.55 | 993.6 | 1614.9 | 1577.5 | 1540 | 1502.9 | 1466.2
x1 = 1 | 1039.36 | 1030.52 | 1021.66 | 1012.76 | 1003.83 | 1634.1 | 1596.5 | 1559 | 1521.8 | 1485
